Experimental data from patent publication US10485235B2, “Aryloxypyrimidinyl ethers as herbicides” (FMC Corporation, priority 2015, dated 2019).

Columns and labels:
Assay type in all cases: in vivo
[1] = tested on: ragweed (common ragweed, Ambrosia elatior); assay: Test A preemergence, ragweed; settings: Ambrosia artemisiifolia, pre-emergence, 240 h, Preemergence, 0 to 100 scale (0 no effect, 100 complete control), read-out: Plant response rating, Ragweed; for pest or weed control at 31 g/ha: 31 g ai/ha; for pest or weed control at 125 g/ha: 125 g ai/ha
Method in brief: (§1)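 Visual injury rating versus untreated controls on a 0 to 100 scale (0 = no effect, 100 = complete control), taken about 10 days after treatment in the greenhouse. Preemergence: directed soil spray over seeded loam–sand. Postemergence: spray on one- to two-leaf plants, 2 to 10 cm tall.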

[2] = tested on: foxtail, giant (giant foxtail, Setaria faberii); assay: Test A preemergence, giant foxtail; settings: Setaria faberi, pre-emergence, 240 h, Preemergence, 0 to 100 scale (0 no effect, 100 complete control), read-out: Plant response rating, Foxtail, Giant; for pest or weed control at 31 g/ha: 31 g ai/ha; for pest or weed control at 125 g/ha: 125 g ai/ha
Method in brief: as §1

[3] = tested on: pigweed (Amaranthus retroflexus); assay: Test A preemergence, pigweed; settings: Amaranthus retroflexus, pre-emergence, 240 h, Preemergence, 0 to 100 scale (0 no effect, 100 complete control), read-out: Plant response rating, Pigweed; for pest or weed control at 31 g/ha: 31 g ai/ha; for pest or weed control at 125 g/ha: 125 g ai/ha
Method in brief: as §1

kochia (Kochia scoparia) = assay: Test A postemergence, kochia; settings: Bassia scoparia, post-emergence, 240 h, postemergence, 0 to 100 scale, 0 is no effect, 100 is complete control, approximately 10 days, read-out: Plant response rating, Kochia; for pest or weed control at 31 g/ha: 31 g ai/ha; for pest or weed control at 125 g/ha: 125 g ai/ha
Method in brief: as §1

[4] = tested on: ragweed (common ragweed, Ambrosia elatior); assay: Test A postemergence, ragweed; settings: Ambrosia artemisiifolia, post-emergence, 240 h, postemergence, 0 to 100 scale, 0 is no effect, 100 is complete control, approximately 10 days, read-out: Plant response rating, Ragweed; for pest or weed control at 31 g/ha: 31 g ai/ha; for pest or weed control at 125 g/ha: 125 g ai/ha
Method in brief: as §1

[5] = tested on: ryegrass, Italian (Italian ryegrass, Lolium multiflorum); assay: Test A postemergence, Italian ryegrass; settings: Lolium multiflorum, post-emergence, 240 h, postemergence, 0 to 100 scale, 0 is no effect, 100 is complete control, approximately 10 days, read-out: Plant response rating, Ryegrass, Italian; for pest or weed control at 31 g/ha: 31 g ai/ha; for pest or weed control at 125 g/ha: 125 g ai/ha
Method in brief: as §1

[6] = tested on: foxtail, giant (giant foxtail, Setaria faberii); assay: Test A postemergence, giant foxtail; settings: Setaria faberi, post-emergence, 240 h, postemergence, 0 to 100 scale, 0 is no effect, 100 is complete control, approximately 10 days, read-out: Plant response rating, Foxtail, Giant; for pest or weed control at 31 g/ha: 31 g ai/ha; for pest or weed control at 125 g/ha: 125 g ai/ha
Method in brief: as §1

[7] = tested on: pigweed (Amaranthus retroflexus); assay: Test A postemergence, pigweed; settings: Amaranthus retroflexus, post-emergence, 240 h, postemergence, 0 to 100 scale, 0 is no effect, 100 is complete control, approximately 10 days, read-out: Plant response rating, Pigweed; for pest or weed control at 31 g/ha: 31 g ai/ha; for pest or weed control at 125 g/ha: 125 g ai/ha
Method in brief: as §1

[8] = tested on: wheat (Triticum aestivum); assay: Test A postemergence, wheat; settings: Triticum aestivum, post-emergence, 240 h, postemergence, 0 to 100 scale, 0 is no effect, 100 is complete control, approximately 10 days, read-out: Plant response rating, Wheat; for plant injury at 31 g/ha: 31 g ai/ha; for plant injury at 125 g/ha: 125 g ai/ha
Method in brief: as §1

[9] = tested on: blackgrass (Alopecurus myosuroides); assay: Test A postemergence, blackgrass; settings: Alopecurus myosuroides, post-emergence, 240 h, postemergence, 0 to 100 scale, 0 is no effect, 100 is complete control, approximately 10 days, read-out: Plant response rating, Blackgrass; for pest or weed control at 31 g/ha: 31 g ai/ha; for pest or weed control at 125 g/ha: 125 g ai/ha
Method in brief: as §1

[10] = tested on: galium (catchweed bedstraw, Galium aparine); assay: Test A postemergence, galium; settings: Galium, post-emergence, 240 h, postemergence, 0 to 100 scale, 0 is no effect, 100 is complete control, approximately 10 days, read-out: Plant response rating, Galium; for pest or weed control at 31 g/ha: 31 g ai/ha; for pest or weed control at 125 g/ha: 125 g ai/ha
Method in brief: as §1

rice (Oryza sativa) = assay: Test B flooded paddy test, rice; settings: Oryza sativa; 250 g ai/ha, Flood; visual rating after 13 to 15 days; scale 0 to 100, 0 is no effect, 100 is complete control; read-out: Plant response rating, Rice
Method in brief: (§2)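 Visual injury scored 0 (no effect) to 100 (complete control) relative to controls 13-15 days after treatment in greenhouse. Treatment: test compound added into paddy water of pots flooded 3 cm over soil, holding 2-leaf-stage plants; water level kept constant.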

[11] = tested on: sedge, umbrella (small-flower umbrella sedge, Cyperus difformis); assay: Test B flooded paddy test, umbrella sedge; settings: Cyperus difformis; 250 g ai/ha, Flood; visual rating after 13 to 15 days; scale 0 to 100, 0 is no effect, 100 is complete control; read-out: Plant response rating, Sedge, Umbrella
Method in brief: as §2

[12] = tested on: barnyardgrass (Echinochloa crus-galli); assay: Test B flooded paddy test, barnyardgrass; settings: Echinochloa crus-galli; 250 g ai/ha, Flood; visual rating after 13 to 15 days; scale 0 to 100, 0 is no effect, 100 is complete control; read-out: Plant response rating, Barnyardgrass
Method in brief: as §2

Row | Structure (SMILES) | pest or weed control at 31 g/ha [1] | pest or weed control at 125 g/ha [1] | pest or weed control at 31 g/ha [2] | pest or weed control at 125 g/ha [2] | pest or weed control at 31 g/ha [3] | pest or weed control at 125 g/ha [3] | pest or weed control at 31 g/ha (kochia (Kochia scoparia)) | pest or weed control at 125 g/ha (kochia (Kochia scoparia)) | pest or weed control at 31 g/ha [4] | pest or weed control at 125 g/ha [4] | pest or weed control at 31 g/ha [5] | pest or weed control at 125 g/ha [5] | pest or weed control at 31 g/ha [6] | pest or weed control at 125 g/ha [6] | pest or weed control at 31 g/ha [7] | pest or weed control at 125 g/ha [7] | plant injury at 31 g/ha [8] | plant injury at 125 g/ha [8] | pest or weed control at 31 g/ha [9] | pest or weed control at 125 g/ha [9] | other results
1 | N#Cc1cccc(Oc2ncc(Cl)cn2)c1OCC(F)(F)F [Compound 1] | 0% | 100% | 60% | 100% | 100% | 100% | 60% | 80% | 10% | 10% | 0% | 0% | 10% | 20% | 60% | 90% | 0% | 0% | 0% | 20% | pest or weed control at 31 g/ha [10]: 10%; pest or weed control at 125 g/ha [10]: 40%
2 | N#Cc1cccc(Oc2ncc(F)cn2)c1OCCCC(F)(F)F [Compound 4, 3-[(5-fluoro-2-pyrimidinyl)oxy]-2-(4,4,4-trifluorobutoxy)benzonitrile] | 10% | 30% | 100% | 100% | 90% | 100% | 90% | 100% | 0% | 20% | 0% | 40% | 70% | 100% | 100% | 100% | 20% | 20% | 40% | 90% | pest or weed control at 31 g/ha [10]: 50%; pest or weed control at 125 g/ha [10]: 90%; plant injury at 250 g/ha (rice (Oryza sativa)): 30%; pest or weed control at 250 g/ha [11]: 95%; pest or weed control at 250 g/ha [12]: 50%
3 | N#Cc1cccc(Oc2ncc(Cl)cn2)c1OCCCC(F)(F)F [Compound 5, 3-[(5-chloro-2-pyrimidinyl)oxy]-2-(4,4,4-trifluorobutoxy)benzonitrile] | 10% | 10% | 100% | 100% | 90% | 90% | 100% | 100% | 10% | 30% | 20% | 40% | 60% | 100% | 100% | 100% | 20% | 40% | 30% | 90% | pest or weed control at 31 g/ha [10]: 80%; pest or weed control at 125 g/ha [10]: 100%; plant injury at 250 g/ha (rice (Oryza sativa)): 40%; pest or weed control at 250 g/ha [11]: 95%; pest or weed control at 250 g/ha [12]: 50%
4 | N#Cc1cccc(Oc2ncc(Cl)cn2)c1OC/C=C/C(F)(F)F [Compound 8, 3-[(5-chloro-2-pyrimidinyl)oxy]-2-[[(2E)-4,4,4-trifluoro-2-buten-1-yl]oxy]benzonitrile] | 0% | 0% | 100% | 100% | 100% | 100% | 80% | 100% | 0% | 10% | 10% | 60% | 20% | 90% | 90% | 100% | 0% | 10% | 20% | 40% | pest or weed control at 31 g/ha [10]: 40%; pest or weed control at 125 g/ha [10]: 90%; plant injury at 250 g/ha (rice (Oryza sativa)): 0%; pest or weed control at 250 g/ha [11]: 100%; pest or weed control at 250 g/ha [12]: 0%
5 | N#Cc1cccc(Oc2ncc(F)cn2)c1OCC(F)(F)F [Compound 41] | 0% | 20% | 20% | 80% | 100% | 100% | 30% | 60% | 10% | 10% | 0% | 10% | 0% | 0% | 30% | 70% | 0% | 0% | 0% | 10% | pest or weed control at 31 g/ha [10]: 10%; pest or weed control at 125 g/ha [10]: 20%
